Assay results taken from the CheMixHub viscosity set.

Experiment: xn = mol fraction of the nth substance listed

CC(O)CCO (configuration not stated) + CN(C)C=O
308.15 K, 101 kPa
Details | viscosity [mPa·s]
x1 = 0.0531 | 0.762
x1 = 0.1 | 0.87
x1 = 0.1985 | 1.178
x1 = 0.3069 | 1.688
x1 = 0.4018 | 2.399
x1 = 0.4993 | 3.462
x1 = 0.6107 | 6.621
x1 = 0.6844 | 9.795
x1 = 0.7882 | 17.12
x1 = 0.8916 | 28.94
x1 = 0.9544 | 38.83

COCCn1cc[n+](C)c1.C[C@@H](O)[C@H](N)C(=O)[O-] + O
100 kPa, x2 = 0.6192
Details | viscosity [mPa·s]
298.15 K | 766.5
303.15 K | 499.5

CCCCCCCCCC(=O)O + CCCCCCCCCCCCCCC
100 kPa, x2 = 0.8127
Details | viscosity [mPa·s]
298.2 K | 2.95
308.2 K | 2.29
318.2 K | 1.83

Cc1cc[n+](CCCO)cc1.[Cl-] + O
viscosity [mPa·s], 100 kPa
Details | x1 = 0.001799 | x1 = 0.00269 | x1 = 0.003585 | x1 = 0.005375 | x1 = 0.007144 | x1 = 0.008904
293.15 K | 1.067 | 1.092 | 1.116 | 1.161 | 1.204 | 1.244
298.15 K | 0.942 | 0.963 | 0.984 | 1.022 | 1.059 | 1.094
303.15 K | 0.84 | 0.859 | 0.876 | 0.911 | 0.943 | 0.974
308.15 K | 0.756 | 0.772 | 0.787 | 0.818 | 0.847 | 0.875
313.15 K | 0.685 | 0.699 | 0.713 | 0.741 | 0.767 | 0.792

CCCCCCCCCC(=O)O + CCCCCCCCCCCCCCCCC
100 kPa, x2 = 0.5591
Details | viscosity [mPa·s]
298.2 K | 4.83
308.2 K | 3.6
318.2 K | 2.77

[K+].[K+].[O]=[Cr](=[O])([O-])[O][Cr](=[O])(=[O])[O-] + O
viscosity [mPa·s], 101 kPa
Details | x1 = 0.001 | x1 = 0.003 | x1 = 0.0068 | x1 = 0.015
298.15 K | 0.89 | 0.9 | 0.91 | –
312.95 K | 0.66 | 0.67 | 0.68 | 0.73

c1ccncc1 + CCO
298.15 K, 101 kPa
Details | viscosity [mPa·s]
x1 = 0.2992 | 1.034
x1 = 0.4997 | 0.9591
x1 = 0.6607 | 0.8792
x1 = 0.7996 | 0.8773

c1ccncc1 + OCC(O)CO
101 kPa
Details | viscosity [mPa·s]
298.15 K, x1 = 0.6001 | 17.25
298.15 K, x1 = 0.8001 | 3.155
303.15 K, x1 = 0.4 | 66.75
308.15 K, x1 = 0.1 | 275.5
313.15 K, x1 = 0.2001 | 116.5
313.15 K, x1 = 0.4 | 36.35

c1ccncc1 + Cc1ccc(C)cc1
viscosity [mPa·s], 101 kPa
Details | x2 = 0.0992 | x2 = 0.1993 | x2 = 0.2987 | x2 = 0.3993 | x2 = 0.4949 | x2 = 0.6001 | x2 = 0.6997 | x2 = 0.7994 | x2 = 0.8981
293.15 K | 0.8699 | 0.8193 | 0.7862 | 0.7311 | 0.6964 | 0.6582 | 0.6345 | 0.6152 | 0.5919
303.15 K | 0.7603 | 0.7165 | 0.6902 | 0.6422 | 0.6139 | 0.5868 | 0.5656 | 0.5475 | 0.5316
313.15 K | 0.6704 | 0.6302 | 0.6051 | 0.565 | 0.5399 | 0.5172 | 0.4986 | 0.4819 | 0.4686
323.15 K | 0.5894 | 0.5534 | 0.5296 | 0.496 | 0.4742 | 0.4548 | 0.4385 | 0.4238 | 0.4123
